Assay type in all cases: physicochemical
Data set [1] in a line: Dynamic Vapor Sorption (DVS) / hygroscopicity test. Conditions: for Humidity change (DVS): within the conventional storage humidity range. As for the experimental part:
Dynamic Vapor Sorption (DVS) test/Hygroscopicity test is a rapid measurement of the increase and loss of sample moisture caused by a flowing carrier gas with a set relative humidity (RH). The hygroscopicity of the sample is then determined by measuring the increase/decrease in the mass of the material to detect the adsorption/desorption of water vapor on a high-sensitivity, high-stability digital microbalance in a self-suspended state.
In the present invention, the test parameters of DVS are as follows: instrument model: SMS DVS Intrinsic; measurement temperature 25° C., 0-95% RH.

A short description of data set [2]: Solubility experiment of each crystalline form in water.
A short description of data set [3]: Crystal transformation experiment (suspension stirring, XRPD). As for the experimental part:
Form A and Form B were mixed in equal amounts, and mixed in EA/Hep(1:1) to give a suspension, and XRPD test is performed after stirring at normal temperature (25° C.) for three days.

Three compounds from patent US12590061B2, “Crystalline form of acetylcholinesterase inhibitor and preparation method therefor and application thereof” (SHANGHAI INSTITUTE OF MATERIA MEDICA, CHINESE ACADEMY OF …, priority 2019, dated 2026) can be followed below.

SMILES strings stand for the structures. ≈ marks a conversion by molar mass, not a printed value. Like-named read-outs stand apart in the source and are kept apart here.

On to `COc1cc2c(cc1OC)C(=O)C(CC1(F)CCN(Cc3ccccc3F)CC1)C2` (single isomer, unassigned) [Form B], for which the “Humidity change (DVS)” value in data set [1] stood at 1%. The Solubility in data set [2] (Pure water) is 8.9 µg/mL (≈ 0.0214 mM); in data set [2] (pH 2.01), 20500 µg/mL (≈ 49.3 mM); in data set [2] (pH 4.59), 2790 µg/mL (≈ 6.72 mM); in data set [2] (pH 6.74), 180 µg/mL (≈ 0.433 mM). In addition, the “Stability order of the three crystalline forms” value (“Stability order” for short) in data set [3] is listed as “Form A>Form B>Form C”.

With `COc1cc2c(cc1OC)C(=O)C(CC1(F)CCN(Cc3ccccc3F)CC1)C2` (single isomer, unassigned) [Form A], the “Change in hygroscopicity (weight change, DVS)” value in data set [1] (0-95% relative humidity, 25° C.) is listed as “about 0.6%”. Further, the Solubility was 140 µg/mL (≈ 0.337 mM) in data set [2] (Pure water); 12400 µg/mL (≈ 29.7 mM) in data set [2] (water, pH 2.01, aqueous buffer, thermodynamic from solid, pH 2.01, read-out: Solubility); 1860 µg/mL (≈ 4.48 mM) in data set [2] (water, pH 4.59, aqueous buffer, thermodynamic from solid, pH 4.59, read-out: Solubility); 140 µg/mL (≈ 0.337 mM) in data set [2] (water, pH 6.74, aqueous buffer, thermodynamic from solid, pH 6.74, read-out: Solubility). In data set [3], the “Stability order” value was “Form A>Form B>Form C”.

Take `COc1cc2c(cc1OC)C(=O)C(CC1(F)CCN(Cc3ccccc3F)CC1)C2` (single isomer, unassigned) [Form C]: the “Humidity change (DVS)” value in data set [1] is listed as 1.2%. Besides, the “Solubility compared with other form” value in data set [2] (in water, Form C becomes Form B after being transformed) is “the same as Form B”. For the same compound, in data set [3], the “Stability order” value was “Form A>Form B>Form C”. The Crystal form transformation result in data set [3] (metastable crystalline) is reported as “transfers to Form B”.
